Reference: patent US20030216479A1, “Novel compositions comprising 2,2-Bis (4-hydroxy-3-methylphenyl) heptane and uses thereof” (priority 2001, published 2003)
In brackets after ≈: the same amount, converted by molar mass.

How the values were obtained:
[1] = test system: methicillin-sensitive Staphylococcus aureus; assay: Wound healing model (FIG. 1); assay type: in vivo; details: methicillin-susceptible Staphylococcus aureus; mice; topical twice daily from 24 h; sampled 72 h post-infection
Method: (§1) FIG. 1. Efficacy of a composition comprising 2,2-Bis(4-hydroxy-3-methylphenyl)heptane in the wound healing model. A defined inoculum of approximately 10^5 CFU of methicillin-sensitive Staphylococcus aureus in 20 μl culture medium was pipetted into a wound approximately 1 cm^2 created by removal of the epidermis from the shaved backs of mice. After 24 hours, the composition comprising 2,2-Bis(4-hydroxy-3-methylphenyl)heptane, placebo control or positive control ointment was applied twice daily. Approximately, seventy two hours post-infection, the wound was sampled and appropriate dilutions plated on nutritive agars for determination of microbial burden. The number of colony forming units (CFU) of methicillin-sensitive Staphylococcus aureus per wound is shown.
(§2) The wound healing model, using methods generally known by those skilled in the art, is used to measure the efficacy of topically applied compounds in suitable vehicles against any bacteria, for example, Staphylococcus epidermis, Staphylococcus aureus, Streptococcus pyrogenes, Haemophilus influenzae, or mixtures thereof. By removing several epidermal layers by surgical procedure, a superficial wound of approximately 1 cm^2 was created. About 10 ^5 cfu/20 ul of culture medium of any bacteria, for example, S aureus, was applied to the wound. […]

[2] = test system: H. influenzae; assay: MIC antibacterial activity; assay type: cell-based; details: Haemophilus influenzae
[3] = test system: S. epidermidis; assay: MIC antibacterial activity; assay type: cell-based; details: Staphylococcus epidermidis
[4] = test system: S. pyogenes; assay: MIC antibacterial activity; assay type: cell-based; details: Streptococcus pyogenes
[5] = test system: methicillin-resistant Staphylococcus aureus; assay: Wound healing model (FIG. 2); assay type: in vivo; details: mice, topical twice daily from 24 h, sampled 72 h post-infection
Method: as §1, with “2.” for “1.”, “methicillin-resistant” for “methicillin-sensitive”
as §2

[6] = test system: M. catarrhalis; assay: MIC antibacterial activity; assay type: cell-based; details: Moraxella catarrhalis
[7] = test system: E. faecalis; assay: MIC antibacterial activity; assay type: cell-based; details: Enterococcus faecalis
[8] = test system: S. pneumoniae; assay: MIC antibacterial activity; assay type: cell-based; details: Streptococcus pneumoniae
[9] = test system: C. diphtheriae; assay: MIC antibacterial activity; assay type: cell-based; details: Corynebacterium diphtheriae
[10] = test system: Staphylococcus epidermidis; assay: Wound healing model (FIG. 3); assay type: in vivo; details: mice, topical twice daily from 24 h, sampled 72 h post-infection
Method: as §1, with “3.” for “1.”, “epidermis” for “aureus”
as §2

[11] = test system: H. pylori; assay: MIC antibacterial activity; assay type: cell-based; details: Helicobacter pylori
[12] = test system: M. smegmatis; assay: MIC antibacterial activity; assay type: cell-based; details: Mycolicibacterium smegmatis

CCCCCC(C)(c1ccc(O)c(C)c1)c1ccc(O)c(C)c1 [2,2-Bis(4-hydroxy-3-methylphenyl)heptane]
reducing the population levels of pathogenic bacteria (CFU per wound) [1]: efficacious | MIC [2]: 6 µg/mL (≈ 19.2 µM) | MIC [3]: 2 µg/mL (≈ 6.4 µM) | MIC [4]: 6 µg/mL (≈ 19.2 µM) | reducing the population levels of pathogenic bacteria (CFU per wound) [5]: efficacious | MIC [6]: 2 µg/mL (≈ 6.4 µM) | MIC [7]: 2 µg/mL (≈ 6.4 µM) | MIC [8]: 6 µg/mL (≈ 19.2 µM) | MIC [9]: 2 µg/mL (≈ 6.4 µM) | reducing the population levels of pathogenic bacteria (CFU per wound) [10]: efficacious | MIC [11]: 16 µg/mL (≈ 51.2 µM) | melting point: 99 to 101 °C | MIC [12]: 2 µg/mL (≈ 6.4 µM)
